From ChEMBL document CHEMBL1201862, “PubChem BioAssay data set” (2004)
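All cell lines were grown in 96-well plates and treated with compound for 48 hours. Abbreviation: GI50, concentration required for 50% inhibition of growth.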 Activity calls are given as the source filed them. Rule as the data show it: active = GI50 up to about 1.1 µM and inactive = higher.

Assays:
Assay in all cases: NCI anticancer screen, dose series, 48 h
[1] = tested on: OVCAR-4
[2] = tested on: KM12
[3] = tested on: RXF 631
[4] = tested on: HOP-18
[5] = tested on: RPMI-8226
[6] = tested on: M14
[7] = tested on: IGROV-1
[8] = tested on: SF-268
[9] = tested on: ACHN
[10] = tested on: SK-OV-3
[11] = tested on: LXFL 529
[12] = tested on: CCRF-CEM
[13] = tested on: HCT-116
[14] = tested on: OVCAR-8
[15] = tested on: SW-620
[16] = tested on: NCI-H23
[17] = tested on: NCI-H522
[18] = tested on: HT-29
[19] = tested on: A498
[20] = tested on: SNB-75
[21] = tested on: OVCAR-3
[22] = tested on: SK-MEL-28
[23] = tested on: Malme-3M
[24] = tested on: HCC 2998
[25] = tested on: SF-295
[26] = tested on: UACC-62
[27] = tested on: LOX IMVI
[28] = tested on: OVCAR-5
[29] = tested on: UO-31
[30] = tested on: TK-10
[31] = tested on: EKVX
[32] = tested on: HL-60
[33] = tested on: DMS-273
[34] = tested on: DLD-1
[35] = tested on: NCI-H226
[36] = tested on: CAKI-1
[37] = tested on: SF-539
[38] = tested on: DMS-114
[39] = tested on: KM-20L2
[40] = tested on: SK-MEL-2
[41] = tested on: SK-MEL-5
[42] = tested on: 786-0
[43] = tested on: HOP-62
[44] = tested on: K562
[45] = tested on: NCI-H460
[46] = tested on: SNB-19
[47] = tested on: HCT-15
[48] = tested on: HOP-92
[49] = tested on: SR
[50] = tested on: UACC-257
[51] = tested on: SNB-78
[52] = tested on: SN12C
[53] = tested on: RXF 393
[54] = tested on: COLO 205
[55] = tested on: A549
[56] = tested on: MOLT-4
[57] = tested on: M19-MEL
[58] = tested on: U-251
[59] = tested on: XF498

Compound: CS/C(=N\c1nccs1)NC(=O)c1cccc(Cl)c1
- GI50 [1]: 68.1 µM (inactive)
- GI50 [2]: > 100 µM (inactive)
- GI50 [3]: 16.8 µM (inactive)
- GI50 [4]: > 100 µM (inactive)
- GI50 [5]: 97.7 µM (inactive)
- GI50 [6]: > 100 µM (inactive)
- GI50 [7]: > 100 µM (inactive)
- GI50 [8]: > 100 µM (inactive)
- GI50 [9]: > 100 µM (inactive)
- GI50 [10]: > 100 µM (inactive)
- GI50 [11]: 91 µM (inactive)
- GI50 [12]: 72.6 µM (inactive)
- GI50 [13]: > 100 µM (inactive)
- GI50 [14]: > 100 µM (inactive)
- GI50 [15]: > 100 µM (inactive)
- GI50 [16]: > 100 µM (inactive)
- GI50 [17]: 34.4 µM (inactive)
- GI50 [18]: > 100 µM (inactive)
- GI50 [19]: 81.8 µM (inactive)
- GI50 [20]: 49.5 µM (inactive)
- GI50 [21]: 75.2 µM (inactive)
- GI50 [22]: > 100 µM (inactive)
- GI50 [23]: > 100 µM (inactive)
- GI50 [24]: > 100 µM (inactive)
- GI50 [25]: 77.8 µM (inactive)
- GI50 [26]: > 100 µM (inactive)
- GI50 [27]: 83.6 µM (inactive)
- GI50 [28]: > 100 µM (inactive)
- GI50 [29]: 62.4 µM (inactive)
- GI50 [30]: 73.5 µM (inactive)
- GI50 [31]: 19 µM (inactive)
- GI50 [32]: 56.8 µM (inactive)
- GI50 [33]: > 100 µM (inactive)
- GI50 [34]: > 100 µM (inactive)
- GI50 [35]: > 100 µM (inactive)
- GI50 [36]: 50.5 µM (inactive)
- GI50 [37]: > 100 µM (inactive)
- GI50 [38]: > 100 µM (inactive)
- GI50 [39]: > 100 µM (inactive)
- GI50 [40]: > 100 µM (inactive)
- GI50 [41]: > 100 µM (inactive)
- GI50 [42]: > 100 µM (inactive)
- GI50 [43]: > 100 µM (inactive)
- GI50 [44]: > 100 µM (inactive)
- GI50 [45]: > 100 µM (inactive)
- GI50 [46]: > 100 µM (inactive)
- GI50 [47]: 24.9 µM
- GI50 [48]: 71.3 µM (inactive)
- GI50 [49]: 24.6 µM (inactive)
- GI50 [50]: > 100 µM (inactive)
- GI50 [51]: > 100 µM (inactive)
- GI50 [52]: 79.4 µM (inactive)
- GI50 [53]: > 100 µM (inactive)
- GI50 [54]: 46.1 µM (inactive)
- GI50 [55]: > 100 µM (inactive)
- GI50 [56]: 31 µM (inactive)
- GI50 [57]: 85.9 µM (inactive)
- GI50 [58]: 72.1 µM (inactive)

Compound: CC1CC(=O)Nc2ccc(Cl)cc2N1C(=O)CN1CCC(CCCCN(C)C)CC1 (stereo not given)
- GI50 [1]: > 100 µM (inactive)
- GI50 [3]: > 100 µM (inactive)
- GI50 [4]: > 100 µM (inactive)
- GI50 [5]: > 100 µM (inactive)
- GI50 [6]: > 100 µM (inactive)
- GI50 [7]: > 100 µM (inactive)
- GI50 [8]: > 100 µM (inactive)
- GI50 [9]: > 100 µM (inactive)
- GI50 [10]: > 100 µM (inactive)
- GI50 [11]: > 100 µM (inactive)
- GI50 [12]: > 100 µM (inactive)
- GI50 [13]: > 100 µM (inactive)
- GI50 [14]: > 100 µM (inactive)
- GI50 [15]: > 100 µM (inactive)
- GI50 [16]: > 100 µM (inactive)
- GI50 [18]: > 100 µM (inactive)
- GI50 [19]: > 100 µM (inactive)
- GI50 [21]: > 100 µM (inactive)
- GI50 [22]: > 100 µM (inactive)
- GI50 [23]: > 100 µM (inactive)
- GI50 [24]: > 100 µM (inactive)
- GI50 [25]: > 100 µM (inactive)
- GI50 [26]: > 100 µM (inactive)
- GI50 [27]: > 100 µM (inactive)
- GI50 [28]: > 100 µM (inactive)
- GI50 [29]: > 100 µM (inactive)
- GI50 [30]: > 100 µM (inactive)
- GI50 [32]: > 100 µM (inactive)
- GI50 [33]: > 100 µM (inactive)
- GI50 [34]: > 100 µM (inactive)
- GI50 [35]: > 100 µM (inactive)
- GI50 [36]: > 100 µM (inactive)
- GI50 [38]: > 100 µM (inactive)
- GI50 [39]: 43.2 µM (inactive)
- GI50 [41]: > 100 µM (inactive)
- GI50 [42]: > 100 µM (inactive)
- GI50 [43]: > 100 µM (inactive)
- GI50 [44]: 80 µM (inactive)
- GI50 [45]: > 100 µM (inactive)
- GI50 [46]: > 100 µM (inactive)
- GI50 [47]: > 100 µM
- GI50 [48]: > 100 µM (inactive)
- GI50 [49]: > 100 µM (inactive)
- GI50 [50]: > 100 µM (inactive)
- GI50 [52]: > 100 µM (inactive)
- GI50 [54]: > 100 µM (inactive)
- GI50 [55]: > 100 µM (inactive)
- GI50 [56]: > 100 µM (inactive)
- GI50 [58]: > 100 µM (inactive)

Compound: O=C(Nc1nc2ccc([N+](=O)[O-])cc2s1)C(=O)C(C1OC(=O)c2ccccc21)[N+](=O)[O-] (stereo not given)
- GI50 [1]: > 100 µM (inactive)
- GI50 [2]: > 100 µM (inactive)
- GI50 [3]: 70.1 µM (inactive)
- GI50 [5]: 56.2 µM (inactive)
- GI50 [6]: > 100 µM (inactive)
- GI50 [7]: 42.2 µM (inactive)
- GI50 [8]: 76.9 µM (inactive)
- GI50 [9]: 39.3 µM (inactive)
- GI50 [10]: 54.3 µM (inactive)
- GI50 [11]: 85.1 µM (inactive)
- GI50 [12]: 63.2 µM (inactive)
- GI50 [13]: 97.5 µM (inactive)
- GI50 [14]: > 100 µM (inactive)
- GI50 [15]: > 100 µM (inactive)
- GI50 [16]: 55.2 µM (inactive)
- GI50 [18]: > 100 µM (inactive)
- GI50 [19]: 12.6 µM (inactive)
- GI50 [20]: 35.6 µM (inactive)
- GI50 [21]: 71 µM (inactive)
- GI50 [22]: > 100 µM (inactive)
- GI50 [23]: > 100 µM (inactive)
- GI50 [24]: > 100 µM (inactive)
- GI50 [25]: 91.2 µM (inactive)
- GI50 [26]: 65.8 µM (inactive)
- GI50 [27]: > 100 µM (inactive)
- GI50 [28]: > 100 µM (inactive)
- GI50 [29]: 20.3 µM (inactive)
- GI50 [30]: 69.2 µM (inactive)
- GI50 [31]: 31.5 µM (inactive)
- GI50 [32]: 63.2 µM (inactive)
- GI50 [34]: 64.6 µM (inactive)
- GI50 [35]: 55.8 µM (inactive)
- GI50 [36]: 70.1 µM (inactive)
- GI50 [37]: 49.9 µM (inactive)
- GI50 [39]: > 100 µM (inactive)
- GI50 [40]: 41.5 µM (inactive)
- GI50 [41]: 64.6 µM (inactive)
- GI50 [42]: > 100 µM (inactive)
- GI50 [43]: 31.9 µM (inactive)
- GI50 [44]: 83.4 µM (inactive)
- GI50 [59]: 27.6 µM (inactive)
- GI50 [45]: > 100 µM (inactive)
- GI50 [46]: 58.6 µM (inactive)
- GI50 [47]: 66.7 µM
- GI50 [48]: 20.4 µM (inactive)
- GI50 [49]: 54.1 µM (inactive)
- GI50 [50]: > 100 µM (inactive)
- GI50 [51]: 85.5 µM (inactive)
- GI50 [52]: 75 µM (inactive)
- GI50 [53]: 27.5 µM (inactive)
- GI50 [54]: > 100 µM (inactive)
- GI50 [55]: > 100 µM (inactive)
- GI50 [56]: 88.5 µM (inactive)
- GI50 [57]: > 100 µM (inactive)
- GI50 [58]: 82.8 µM (inactive)

Compound: CCCN(CCC)C1CC(n2cc(C)c(=O)[nH]c2=O)OC1CO (stereo not given)
- GI50 [1]: > 100 µM (inactive)
- GI50 [3]: > 100 µM (inactive)
- GI50 [5]: > 100 µM (inactive)
- GI50 [6]: > 100 µM (inactive)
- GI50 [7]: > 100 µM (inactive)
- GI50 [8]: > 100 µM (inactive)
- GI50 [9]: > 100 µM (inactive)
- GI50 [10]: > 100 µM (inactive)
- GI50 [11]: > 100 µM (inactive)
- GI50 [12]: > 100 µM (inactive)
- GI50 [13]: > 100 µM (inactive)
- GI50 [16]: > 100 µM (inactive)
- GI50 [17]: > 100 µM (inactive)
- GI50 [20]: > 100 µM (inactive)
- GI50 [22]: > 100 µM (inactive)
- GI50 [23]: > 100 µM (inactive)
- GI50 [24]: > 100 µM (inactive)
- GI50 [26]: > 100 µM (inactive)
- GI50 [29]: > 100 µM (inactive)
- GI50 [32]: > 100 µM (inactive)
- GI50 [33]: > 100 µM (inactive)
- GI50 [34]: > 100 µM (inactive)
- GI50 [35]: > 100 µM (inactive)
- GI50 [36]: > 100 µM (inactive)
- GI50 [37]: > 100 µM (inactive)
- GI50 [38]: > 100 µM (inactive)
- GI50 [40]: > 100 µM (inactive)
- GI50 [42]: > 100 µM (inactive)
- GI50 [43]: > 100 µM (inactive)
- GI50 [44]: > 100 µM (inactive)
- GI50 [45]: > 100 µM (inactive)
- GI50 [48]: > 100 µM (inactive)
- GI50 [49]: > 100 µM (inactive)
- GI50 [51]: > 100 µM (inactive)
- GI50 [52]: > 100 µM (inactive)
- GI50 [54]: > 100 µM (inactive)
- GI50 [56]: > 100 µM (inactive)
- GI50 [57]: > 100 µM (inactive)
